Here are results for 13 compounds from patent publication US10040783B2 (Emory University, priority 2011, dated 2018).

Entries after “also recorded” stand apart in the source; their conditions may differ. Like-named read-outs stand apart in the source and are kept apart here.

What is called EC50 is the concentration at which the effect is half-maximal.

The target of one data set is EP4 receptor (Homo sapiens, UniProt P35408). In words: Schild regression analysis for EP4 receptor. Format: cell-based. As to conditions: for Kb: read-out: KB (μM) EP4, from Schild regression analysis. From the text: (§1) Information on the modality of antagonism can be obtained by performing Schild regression analysis characterized by: log (dr−1)=log XB−log KB. In the equation, dose ratio (dr)=fold shift in EC50, XB=[antagonist], KB=equilibrium dissociation constant for the antagonist-receptor complex. […] Thus, a lower KB value indicates a higher inhibitory potency.
Chain of EP4 receptor (P35408 whole entry): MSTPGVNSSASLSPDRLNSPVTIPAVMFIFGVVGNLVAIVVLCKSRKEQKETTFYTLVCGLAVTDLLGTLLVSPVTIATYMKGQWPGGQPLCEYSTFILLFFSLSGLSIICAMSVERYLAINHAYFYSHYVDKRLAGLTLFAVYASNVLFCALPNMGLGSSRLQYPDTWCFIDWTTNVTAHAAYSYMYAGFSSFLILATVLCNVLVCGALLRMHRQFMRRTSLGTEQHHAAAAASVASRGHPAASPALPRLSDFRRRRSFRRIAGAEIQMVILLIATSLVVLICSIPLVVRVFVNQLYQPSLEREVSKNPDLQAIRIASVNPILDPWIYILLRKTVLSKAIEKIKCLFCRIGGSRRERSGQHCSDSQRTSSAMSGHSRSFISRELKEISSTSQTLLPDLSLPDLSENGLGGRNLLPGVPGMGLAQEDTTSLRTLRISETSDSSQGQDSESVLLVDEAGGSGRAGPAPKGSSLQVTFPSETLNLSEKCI

Data set [1] has as its system rat primary hippocampal cultures. In words: NMDA-induced LDH release (excitotoxicity) in primary hippocampal cultures. The data set is classed as cell-based. From the text:
Excitotoxicity caused by NMDA receptor activation is recognized to induce neuronal apoptosis both in vitro and in vivo in cortical neurons. NMDA receptor activation can, via COX-2, cause prostaglandin production, including PGE2. Activation of the EP2 receptor by PGE2 in microglia can promote neuroinflammation in several models of neurodegenerative diseases. The effect of EP2 antagonist compounds were examined on NMDA-induced excitotoxicity. Rat primary hippocampal cultures (DIV13-15) were preincubated with vehicle or increasing concentrations of test compound for 15-20 min, followed by treatment with NMDA (30 μM) plus glycine (10 μM) overnight in continued presence of the test compound. Lactate dehydrogenase (LDH) release was used as the measure of neuronal injury.

The next data set can be described thus: in vitro. As to conditions: rat; for CC50 at 48 h: C6G cells.
Data set [2] has as its target T1, EP2 receptor (Homo sapiens, UniProt P43116). Briefly: Schild regression of PGE2-induced EP2 activation in C6G-EP2 cells. Format: cell-based. Also on record: expressed in transfected cells; host or cells: C6G-EP2 cells. The note with it: for Schild plot slope: PGE2; for Modality of antagonism on EP2 receptor: Schild plots. The method, then:
as §1
To perform the Schild regression, C6G-EP2 cells were incubated first with vehicle, 0.01, 0.1 or 1 μM of test compound for 5 minutes, then with increasing concentrations of PGE2 to activate the EP2 receptor.

The next data set has as its system C6G cells. In words: CellTiter-Glo luminescent cell viability assay (cytotoxicity).
Another data set has as its target T2, human DP1 receptors (Homo sapiens, UniProt Q13258).
T2 construct: expressed in transfected cells
T2 sequence (Q13258 1-359): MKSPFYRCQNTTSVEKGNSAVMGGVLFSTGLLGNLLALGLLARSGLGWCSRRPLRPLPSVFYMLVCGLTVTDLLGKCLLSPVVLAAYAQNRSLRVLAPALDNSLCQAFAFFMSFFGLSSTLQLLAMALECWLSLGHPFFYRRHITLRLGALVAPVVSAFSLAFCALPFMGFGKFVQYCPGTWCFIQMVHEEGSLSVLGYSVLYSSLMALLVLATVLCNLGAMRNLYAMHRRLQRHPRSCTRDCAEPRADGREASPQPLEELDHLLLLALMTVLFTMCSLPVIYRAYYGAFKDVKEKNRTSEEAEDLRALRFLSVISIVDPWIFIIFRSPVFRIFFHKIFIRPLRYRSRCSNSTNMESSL
Briefly: DP1 assay: BW245C-induced cAMP, TR-FRET, in C6G cells expressing DP1. Format: cell-based. As to conditions: agonist BW245C. As for the experimental part: DP1 Assay Both DP1 and EP2 receptors are positively coupled through Gαs to cAMP production and conduct very similar physiological and pathological events. Among the eight canonical prostanoid receptors, DP1 has similarities to EP2 at both protein and DNA level. C6G cells that stably expressing human DP1 receptors were seeded into 384-well plates in 30 μL complete medium (4,000 cells per well) and grown overnight. The medium was thoroughly withdrawn and 10 μL HBSS (HyClone) plus 20 μM rolipram were added into the wells to block phosphodiesterase. […] The cells were lysed in 10 μL lysis buffer containing the FRET acceptor cAMP-d2 and 1 min later another 10 μL lysis buffer with anti-cAMP-Cryptate was added. […] The FRET signal is expressed as F665/[…].

The subject of data set [3] is PC3 cells. In words: MTT cell proliferation assay, butaprost-promoted growth. Format: cell-based. The source says:
(§2) PGE2/EP2 signaling has been recognized to play important roles in mediating tumor progression and tumor-associated angiogenesis.
Background: Tetrazolium dyes change colour on reduction, which living cells bring about.

For data set [4], the system named is PC3 cells. Briefly: Cell invasion across Matrigel-coated filter. The data set is classed as cell-based. The note with it: for Effect on PC3 cell invasion (cells moved across Matrigel-coated filter): butaprost 1 μM.
Excerpt: as §2

The test system of data set [5] is iNOS, COX-2, IL-1β and IL-6 expression. Briefly: qRT-PCR of inflammatory mediators in microglia-enriched cultures. Format: cell-based, rat. The source says:
Nitric oxide (NO) synthesized by iNOS and prostaglandins produced by COX-2 are effectors of neurotoxicity and neuroinflammation, thus, these two inducible enzymes have been recognized as inflammatory mediators produced in activated microglia. As the dominant enzymatic product of COX-2, PGE2 therefore might play a role in microglia-mediated neuroinflammation and neurodegeneration.
For orientation: Quantitative PCR measures a nucleic acid by following its amplification.

In data set [6] the target is T1, EP2 receptor. In words: Butaprost-induced cAMP accumulation in PC3 cells. The note with it: concentration-dependent. Further details: PC3 cells express a substantially higher level of EP2 than DU145 and LNCap cells; endogenous in cells; host or cells: PC3 cells. Format: cell-based.
Excerpt: as §2
(Changes in cAMP serve as a functional read-out for many G protein-coupled receptors.)

Data set [7] relates to rat microglia-enriched cultures. In words: LDH release in microglia-enriched cultures. The data set is classed as cell-based. As to conditions: 10 μM, overnight, basal. The method, then:
Microglia are the initial and major mediators of neuroinflammation and neurodegeneration in various models of neurological disorders. EP2 receptor has been reported to regulate microglial activation and subsequent neurotoxicity in several animal models. The effects of EP2 activation in microglia were investigated. Rat microglia-enriched cultures were incubated with vehicle, butaprost, or compound A1 overnight. The cellular viability was evaluated by measuring Lactate dehydrogenase (LDH) release.

Where [8] appears, read: Rattus norvegicus, 10 μM compound, NMDA 30 μM plus glycine 10 μM overnight, read-out: NMDA-induced LDH release, % of control.
[9] abbreviates: C6G-EP2 cells, PGE2 as agonist, read-out: KB (nM) EP2, from Schild regression analysis.
Where [10] appears, read: additional compounds tables, read-out: EP2 KB.

T1 sequence (P43116 whole entry): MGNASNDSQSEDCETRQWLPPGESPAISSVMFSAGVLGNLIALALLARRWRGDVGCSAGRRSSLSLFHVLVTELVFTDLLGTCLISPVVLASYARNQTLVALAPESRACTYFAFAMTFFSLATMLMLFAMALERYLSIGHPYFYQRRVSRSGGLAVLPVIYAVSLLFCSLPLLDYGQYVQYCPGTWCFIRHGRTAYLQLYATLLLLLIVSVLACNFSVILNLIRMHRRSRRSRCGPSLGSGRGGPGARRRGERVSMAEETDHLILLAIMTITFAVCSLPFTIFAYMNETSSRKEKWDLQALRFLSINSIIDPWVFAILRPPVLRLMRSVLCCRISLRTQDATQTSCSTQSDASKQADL

Take `COc1ccc(/C=C/C(=O)NCCn2c(C)cc3ccccc32)cc1Cl` [1w]: on EP4 receptor, the “Selective index, KB EP4/KB EP2” value is listed as 2,470. Moreover, the figures for the Kb at EP4 receptor and at EP2 receptor [2] (setting [9]) were 4.7 µM and 1.9 nM, respectively. In data set [1] (setting [8]), the activity at 10 µM was found to be 78.4%. Moreover, in “in vitro”, the CC50 at 48 h stood at 481000 nM. Besides, the “Therapeutic index (in vitro), CC50/KB for EP2” value (from here on “Therapeutic index (in vitro)”) with C6G cells is 253,000.

For the compound `COc1cc(/C=C/C(=O)NCCc2c(C)[nH]c3ccccc23)cc(OC)c1OC` [TG7-74], the Kb is 112 nM at human DP1 receptors and 2.9 nM at EP2 receptor [2] (setting [10]).

As for `COc1ccc(C(=O)NCCn2c(C)cc3ccccc32)cc1OC` [TG7-112-2, 3,4-dimethoxy-N-(2-(2-methyl-1H-indol-1-yl)ethyl)benzamide], the Kb at human DP1 receptors worked out at 1430 nM.

On to `COc1ccc(C=CC(=O)NCCn2c(C)cc3ccccc32)cc1OC` [A2, 3-(3,4-dimethoxyphenyl)-N-(2-(2-methyl-1H-indol-1-yl)ethyl)acrylamide], for which, on EP4 receptor, the “Selective index, KB EP4/KB EP2” value is 435 and the Kb was determined as 2 µM. For the same compound, the activity at 10 µM in data set [1] (setting [8]) was determined as 77.8%. This compound registered a CC50 at 48 h in the data set “in vitro” of 397000 nM. At EP2 receptor [2] (C6G-EP2 cells), the Schild plot slope was 1.1. The Kb at EP2 receptor [2] (setting [9]) stood at 4.6 nM. In addition, at EP2 receptor [2], the “Modality of antagonism on EP2 receptor” value is listed as “competitive antagonism”. Also, the “Therapeutic index (in vitro)” value with C6G cells is listed as 86,300.

With `COc1cc(C=CC(=O)NCCn2c(C)cc3ccccc32)cc(OC)c1OC` [A1, N-(2-(2-methyl-1H-indol-1-yl)ethyl)-3-(3,4,5-trimethoxyphenyl)acrylamide], in the data set with PC3 cells [3] (concentration-dependent), the “Effect on butaprost-induced PC3 cell growth” value is recorded as “attenuated”. Moreover, in the data set with PC3 cells [4] (cotreatment 1 μM with butaprost 1 μM), the “Effect on PC3 cell invasion promoted by EP2 activation” value is recorded as “inhibited; also recorded: blocked”. Also, in data set [1] (Rattus norvegicus, 0.01 μM compound, NMDA 30 μM plus glycine 10 μM overnight, read-out: NMDA-induced LDH release, % of control), the activity at 0.01 µM was 94%. Also, in data set [1] (Rattus norvegicus, 0.1 μM compound, NMDA 30 μM plus glycine 10 μM overnight, read-out: NMDA-induced LDH release, % of control), the activity at 0.1 µM is 87.8%. The activity at 1 µM in data set [1] (Rattus norvegicus, 1 μM compound, NMDA 30 μM plus glycine 10 μM overnight, read-out: NMDA-induced LDH release, % of control) was 73.9%. Also, the activity at 10 µM in data set [1] (setting [8]) stood at 50.8%. For the same compound, the EC50 in data set [1] (rat hippocampal cultures, read-out: EC50 for the reduction of NMDA-induced LDH release) is 800 nM. Moreover, the “Effect on butaprost-induced upregulation of inflammatory mediators” value in [5] (0.1-10 μM, concentration-dependent) is listed as “inhibited; also recorded: attenuated”. Besides, in the data set “in vitro”, the CC50 was 172000 nM. For the same compound, the Schild plot slope on EP2 receptor [2] (C6G-EP2 cells) was 1.0. Further, the “Modality of antagonism on EP2 receptor” value at EP2 receptor [2] is “competitive antagonism”. Also, at EP2 receptor [6], the “Inhibition of butaprost-induced EP2 receptor activation” value was “robust competitive inhibition”.

In the case of `COc1ccc(/C=C/C(=O)NCCc2c(C)[nH]c3ccccc23)cc1OC` [TG7-76], the figures for the Kb at human DP1 receptors and at EP2 receptor [2] (setting [10]) were 227 nM and 6 nM, respectively.

As to `CC(=O)Nc1ccc(C(=O)NCCn2c(C)cc3ccccc32)cc1` [TG7-117, 4-acetamido-N-(2-(2-methyl-1H-indol-1-yl)ethyl)benzamide], the Kb amounted to 5830 nM on human DP1 receptors and 83 nM at EP2 receptor [2] (setting [10]).

For `Cc1cc(/C=C/C(=O)NCCn2c(C)cc3ccccc32)cc(C)c1F` [TG7-98, 3-(4-fluoro-3,5-dimethylphenyl)-N-(2-(2-methyl-1H-indol-1-yl)ethyl)acrylamide], the Kb on human DP1 receptors amounted to 745 nM; at EP2 receptor [2] (setting [10]) it was 4.4 nM.

As to `COc1cc(C=CC(=O)NCCn2c(C)cc3cc(F)ccc32)cc(OC)c1OC` [1f, N-(2-(5-fluoro-2-methyl-1H-indol-1-yl)ethyl)-3-(3,4,5-trimethoxyphenyl)acrylamide], on EP4 receptor, the “Selective index, KB EP4/KB EP2” value is on record as 2,600. In addition, the Kb at EP4 receptor stood at 5.4 µM; on EP2 receptor [2] (setting [9]) it was 2.1 nM. In data set [1] (setting [8]), the activity at 10 µM turned out to be 38.5%. In addition, in “in vitro”, the CC50 at 48 h worked out at 155000 nM. Moreover, in the data set on C6G cells, the “Therapeutic index (in vitro)” value is given as 73,800.

For the compound `COc1cc(/C=C/C(=O)NCCN2CCCCC2C)cc(OC)c1OC` (stereo not shown) [1e], the Kb at EP4 receptor is 18.9 µM. The “NMDA-induced LDH release, % of control” value in [1] (10 μM compound, NMDA 30 μM plus glycine 10 μM overnight) was “did not show any effect and not”. Moreover, the “KB (nM) EP2, from Schild regression analysis” value on EP2 receptor [2] (C6G-EP2 cells, PGE2 as agonist) is given as “Inactive”. Moreover, in the data set with C6G cells (read-out: CC50, half maximal cytotoxic concentration, C6G cells after 48 h incubation), the CC50 was determined as 316000 nM.

With `CCCC1([C@H](O)C/C=C/[C@H]2[C@H](O)CC(=O)[C@@H]2CCCCCCC(=O)OC)CCC1` [butaprost], in the data set on PC3 cells [3], the Concentration giving maximal response of PC3 cell growth came out at 1 µM and the “Effect of EP2 activation on PC3 cell growth” value was “promoted PC3 cell growth”. The “Effect on PC3 cell invasion (cells moved across Matrigel-coated filter)” value in the data set with PC3 cells [4] was “promoted cell invasion”. Also, the “Effect on PC3 cell invasion (cells moved across Matrigel-coated filter)” value in the data set on PC3 cells [4] (listed as Butaprost) is given as “significantly increased”. Moreover, the “LDH release compared to control” value in data set [7] is 138%. For the same compound, in data set [5] (butaprost 1 μM, qRT-PCR), the COX-2 expression increase amounted to 16.3 fold, the IL-1β expression increase was 1.8 fold, the IL-6 expression increase is recorded as 11.1 fold and the iNOS expression increase was 3.4 fold.

Consider `CCOc1ccc(C=CC(=O)NCCn2c(C)cc3ccccc32)cc1OC` [1p, 3-(4-ethoxy-3-methoxyphenyl)-N-(2-(2-methyl-1H-indol-1-yl)ethyl)acrylamide], for which, on EP4 receptor, the “Selective index, KB EP4/KB EP2” value came to 268 and the Kb turned out to be 1.9 µM. Besides, the CC50 at 48 h in “in vitro” is 517000 nM. Also, the Kb on EP2 receptor [2] (setting [9]) stood at 7.2 nM. Also, the “Therapeutic index (in vitro)” value in the data set with C6G cells is listed as 71,800.

As for `Cc1cc2ccccc2n1CCNC(=O)C=Cc1cc(F)c(F)c(F)c1` [1t, N-(2-(2-methyl-1H-indol-1-yl)ethyl)-3-(3,4,5-trifluorophenyl)acrylamide], at EP4 receptor, the “Selective index, KB EP4/KB EP2” value came out at 921 and the Kb amounted to 17.2 µM. The compound further registered a CC50 at 48 h in the data set “in vitro” of 46000 nM. On EP2 receptor [2] (setting [9]), the Kb was 18.7 nM. For the same compound, in the data set on C6G cells, the “Therapeutic index (in vitro)” value is reported as 2,460.
